Source: PMC12693167, “Design, Synthesis and Anticancer Activity of 6-Substituted-1-(3,4,5-trimethoxyphenyl)-1H-indole Against Tubulin Polymerisation” (Molecules, 2025)

Tests used:
[1] = test system: B16-F10 cells; test: CCK-8 antiproliferative assay, B16-F10; format: cell-based, murine; conditions: Mus musculus, cell viability (CCK-8), 48 h
Procedure: (§1) To evaluate the anticancer potential of the synthesized compounds, a panel of six human and murine cancer cell lines representing different tissue origins was selected, including MCF-7 (human breast adenocarcinoma), MDA-MB-231 (human triple-negative breast cancer), A549 (human non-small cell lung cancer), HeLa (human cervical cancer), A375 (human melanoma), and B16-F10 (murine melanoma) (Table 2). […] DMSO was used as the vehicle control, and all experiments were performed in triplicate to ensure reproducibility.
(§2) Human breast cancer cells (MCF-7), human lung cancer cells (A549), human cervical cancer cells (HeLa), human triple-negative breast cancer cells (MDA-MB-231), and human malignant melanoma cells (A375) were cultured in DMEM. Mouse melanoma cells (B16F10) were maintained in RPMI-1640 medium. All media were supplemented with 10% fetal bovine serum and 1% penicillin-streptomycin (Life Technologies, Carlsbad, CA, USA) and maintained at 37 °C in a humidified atmosphere with 5% CO2.
(§3) The cytotoxicity of the test compounds was evaluated against MCF-7, A549, HeLa, MDA-MB-231, A375, and B16F10 using the CCK-8 assay. Cells were seeded into 96-well plates at a density of 5000 cells/well. After removing the medium, 100 μL of medium with 0.1% DMSO containing test compounds at different concentrations was added to each well and incubated at 37 °C for another 48 h. The CCK-8 solution was added and incubated for another 1 h, and then, the absorbance was detected with a microplate reader at a wavelength of 450 nm. The IC50 values were calculated by nonlinear regression analysis using GraphPad Prism 8.0.2. All the experiments were repeated at least three times.

[2] = test system: MDA-MB-231 cells; test: CCK-8 antiproliferative assay, MDA-MB-231; format: cell-based; conditions: Homo sapiens, cell viability (CCK-8), 48 h
Procedure: as §1, §2, §3

[3] = test system: A549 cells; test: CCK-8 antiproliferative assay, A549; format: cell-based; conditions: Homo sapiens, cell viability (CCK-8), 48 h
Procedure: as §1, §2, §3

[4] = target: T1, purified porcine brain tubulin (Sus scrofa, UniProt P02554); test: Biolayer interferometry (BLI) binding to tubulin; conditions: immobilized tubulin, 1:1 binding model, mean ± SD, triplicate
T1 construct: purified porcine brain tubulin; from tissue; host or cells: porcine brain
Procedure: To detect the direct interaction between the synthesized compounds and tubulin, biolayer interferometry (BLI) experiments were performed using purified porcine brain tubulin immobilized on Super Streptavidin (SSA) biosensor [30]. […] Association and dissociation kinetics were monitored in real time, and equilibrium dissociation constants (KD) were determined by global fitting of the sensorgrams to a 1:1 binding model. All measurements were conducted in triplicate, and results are reported as mean ± SD.
BLI assays were performed on an Octet RED96 instrument (FortéBio, Pall Life Sciences, Menlo Park, CA, USA) at 25 °C in PBS buffer supplemented with 0.02% (v/v) Tween-20 as the running buffer. Biotinylated tubulin proteins (3 μg/mL) were immobilized onto Super Streptavidin (SSA) biosensors. Association and dissociation were monitored for 60 s each. […] Reference subtraction was performed using sensors incubated in running buffer without protein loading to correct for baseline drift. Data were analyzed using Octet Data Analysis software (version 9.0), and equilibrium dissociation constants (KD) were determined by fitting the curves to a 1:1 binding model. All measurements were performed in triplicate, and results are reported as mean ± SD.
BLI assays were performed on an Octet RED96 instrument (FortéBio, Pall Life Sciences) at 25 °C in PBS buffer supplemented with 0.02% (v/v) Tween-20 as the running buffer. Biotinylated tubulin proteins (3 μg/mL) were immobilized onto Super Streptavidin (SSA) biosensors. Association and dissociation were monitored for 60 s […]
Reference subtraction was performed using sensors incubated in running buffer without protein loading to correct for baseline drift. Data were analyzed using Octet Data Analysis software (version 9.0), and equilibrium dissociation constants (KD) were determined by fitting the curves to a 1:1 binding model. All measurements were performed in triplicate, and results are reported as mean ± SD.

[5] = test system: HeLa cells; test: CCK-8 antiproliferative assay, HeLa; format: cell-based; conditions: Homo sapiens, cell viability (CCK-8), 48 h
Procedure: as §1, §2, §3

[6] = test system: MCF-7 cells; test: CCK-8 antiproliferative assay, MCF-7; format: cell-based; conditions: Homo sapiens, MCF7; cell viability (CCK-8), 48 h
Procedure: as §1, §2, §3

[7] = test system: A375 cells; test: CCK-8 antiproliferative assay, A375; format: cell-based; conditions: Homo sapiens, A-375; cell viability (CCK-8), 48 h
Procedure: as §1, §2, §3

[8] = target: T2, Porcine brain tubulin protein (Sus scrofa, UniProt P02554); test: In vitro tubulin polymerization assay; format: biochemical; conditions: read-out: IC50, inhibitory effect on tubulin polymerization
T2 construct: Porcine brain tubulin protein was dissolved in EM buffer; from tissue; host or cells: porcine brain
Procedure: The ability of compound 3g to disrupt microtubule dynamics was assessed using an in vitro tubulin polymerization assay.
Porcine brain tubulin protein was dissolved in EM buffer containing 5% glycerol (80 mM PIPES, 2 mM GTP, 2 mM MgCl2, and 0.5 mM EGTA, pH 6.9). Compounds were diluted in EM buffer to final concentrations of 50, 25, 10, 5, and 2.5 μM and added to a pre-warmed 384-well plate, followed by pre-incubation at 37 °C. Subsequently, 14 μL of the tubulin-GTP mixture was added to each well containing the test compounds. Tubulin polymerization was monitored by measuring absorbance at 340 nm every minute for 60 min. […] Each assay was performed in triplicate.
Absorbance at 340 nm was determined every 1 min.

T1 sequence (P02554 whole entry): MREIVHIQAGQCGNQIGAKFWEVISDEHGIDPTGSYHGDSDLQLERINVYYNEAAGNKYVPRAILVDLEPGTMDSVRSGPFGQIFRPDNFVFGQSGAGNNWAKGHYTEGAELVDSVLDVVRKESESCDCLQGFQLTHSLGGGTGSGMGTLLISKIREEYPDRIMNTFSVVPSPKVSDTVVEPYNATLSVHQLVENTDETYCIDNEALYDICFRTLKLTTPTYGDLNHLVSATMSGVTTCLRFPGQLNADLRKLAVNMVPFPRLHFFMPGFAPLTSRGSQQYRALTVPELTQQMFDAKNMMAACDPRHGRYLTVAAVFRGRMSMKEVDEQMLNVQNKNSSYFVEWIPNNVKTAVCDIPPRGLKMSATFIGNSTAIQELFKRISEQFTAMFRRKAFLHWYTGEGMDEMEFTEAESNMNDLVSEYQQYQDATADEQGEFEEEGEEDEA
T1 sequence (P02550 whole entry partner): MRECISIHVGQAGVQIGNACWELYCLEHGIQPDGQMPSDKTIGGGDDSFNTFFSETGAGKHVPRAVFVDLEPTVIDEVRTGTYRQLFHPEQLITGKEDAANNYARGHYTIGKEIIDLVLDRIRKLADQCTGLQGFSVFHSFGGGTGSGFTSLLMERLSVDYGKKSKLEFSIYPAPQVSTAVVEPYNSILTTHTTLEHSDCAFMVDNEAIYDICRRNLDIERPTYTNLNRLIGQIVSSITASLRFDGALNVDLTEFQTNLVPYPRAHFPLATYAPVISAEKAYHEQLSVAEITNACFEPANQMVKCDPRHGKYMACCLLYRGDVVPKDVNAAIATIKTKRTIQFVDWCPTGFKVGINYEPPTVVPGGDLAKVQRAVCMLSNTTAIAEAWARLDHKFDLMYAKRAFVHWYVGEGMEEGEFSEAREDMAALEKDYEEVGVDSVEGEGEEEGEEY
T2 sequence (P02554 whole entry): as the sequence (P02554 whole entry) above
T2 sequence (P02550 whole entry partner): as the sequence (P02550 whole entry partner) above

| SMILES | IC50 [1] | IC50 [2] | IC50 [3] | Kd [4] | IC50 [5] | IC50 [6] | IC50 [7] | KD [4] | IC50 [8] |
| --- | --- | --- | --- | --- | --- | --- | --- | --- | --- |
| COc1cc(-n2ccc3ccc(-c4ccc(SC)cc4)cc32)cc(OC)c1OC [3j, 6-(4-(methylthio)phenyl)-1-(3,4,5-trimethoxyphenyl)-1H-indole] | > 100 µM | > 100 µM | > 100 µM | > 200 µM | > 100 µM | > 100 µM | > 100 µM | undetectable binding | – |
| COc1cc(-n2ccc3ccc(-c4ccc(C(C)C)cc4)cc32)cc(OC)c1OC [3k, 6-(4-isopropylphenyl)-1-(3,4,5-trimethoxyphenyl)-1H-indole] | > 100 µM | > 100 µM | > 100 µM | > 200 µM | > 100 µM | > 100 µM | > 100 µM | undetectable binding | – |
| COc1cc(-n2ccc3ccc(-c4ccccc4C#N)cc32)cc(OC)c1OC [3l, 2-(1-(3,4,5-trimethoxyphenyl)-1H-indol-6-yl)benzonitrile] | > 100 µM | > 100 µM | > 100 µM | 26 ± 3.38 µM | > 100 µM | > 100 µM | > 100 µM | low micromolar range | – |
| COc1cc(-n2ccc3ccc(-c4ccc(C#N)cc4)cc32)cc(OC)c1OC [3m, 4-(1-(3,4,5-trimethoxyphenyl)-1H-indol-6-yl)benzonitrile] | > 100 µM | > 100 µM | > 100 µM | > 200 µM | > 100 µM | > 100 µM | > 100 µM | undetectable binding | – |
| COc1cc(-n2ccc3ccc(-c4ccc(Oc5ccccc5)cc4)cc32)cc(OC)c1OC [3o, 6-(4-Phenoxyphenyl)-1-(3,4,5-trimethoxyphenyl)-1H-indole] | > 100 µM | > 100 µM | > 100 µM | 31 ± 3.41 µM | > 100 µM | > 100 µM | > 100 µM | – | – |
| COc1cc(-n2ccc3ccc(-c4nc5ccccc5s4)cc32)cc(OC)c1OC [3p, 2-(1-(3,4,5-trimethoxyphenyl)-1H-indol-6-yl)benzo[d]thiazole] | > 100 µM | > 100 µM | > 100 µM | > 200 µM | > 100 µM | > 100 µM | > 100 µM | undetectable binding | – |
| COc1cc(-n2ccc3ccc(Cl)cc32)cc(OC)c1OC [H1] | – | – | – | – | – | – | – | – | 101 µM |

The next lines start with the values.

| IC50 [1] | IC50 [2] | IC50 [3] | Kd [4] | IC50 [5] | IC50 [6] | IC50 [7] | KD [4] | IC50 [8] | SMILES |
| --- | --- | --- | --- | --- | --- | --- | --- | --- | --- |
| 45.4 ± 1.11 µM | 78.92 ± 0.57 µM | 36.6 ± 1.78 µM | 39 ± 2.6 µM | > 100 µM | 10.1 ± 0.68 µM | 1.16 ± 0.12 µM | – | – | COc1cc(-n2ccc3ccc(-c4ccccc4)cc32)cc(OC)c1OC [3a, 6-phenyl-1-(3,4,5-trimethoxyphenyl)-1H-indole] |
| 3.78 ± 0.14 µM | 42.9 ± 3.13 µM | 41.2 ± 3.42 µM | 29 ± 4.1 µM | 38.5 ± 2.25 µM | 3.33 ± 0.28 µM | 27.5 ± 2.5 µM | low micromolar range | – | COc1cc(-n2ccc3ccc(-c4cccc(C#N)c4)cc32)cc(OC)c1OC [3b, 3-(1-(3,4,5-trimethoxyphenyl)-1H-indol-6-yl)benzonitrile] |
| 59.2 ± 5.86 µM | 37.7 ± 0.89 µM | 92.4 ± 8.58 µM | 23 ± 2.12 µM | 66.5 ± 6.21 µM | 9.15 ± 0.21 µM | 53.2 ± 4.06 µM | low micromolar range | – | COc1cc(-n2ccc3ccc(-c4cccc(C)c4)cc32)cc(OC)c1OC [3c, 6-(m-tolyl)-1-(3,4,5-trimethoxyphenyl)-1H-indole] |
| 6.49 ± 0.4 µM | 23.4 ± 0.44 µM | 60.2 ± 4.17 µM | 24 ± 2.13 µM | 46.6 ± 3.65 µM | 34.2 ± 1.62 µM | 24.84 ± 0.16 µM | low micromolar range | – | CCc1ccccc1-c1ccc2ccn(-c3cc(OC)c(OC)c(OC)c3)c2c1 [3d, 6-(2-ethylphenyl)-1-(3,4,5-trimethoxyphenyl)-1H-indole] |
| > 100 µM | > 100 µM | > 100 µM | 110 ± 14.5 µM | > 100 µM | > 100 µM | > 100 µM | – | – | CCc1ccc(-c2ccc3ccn(-c4cc(OC)c(OC)c(OC)c4)c3c2)cc1 [3e, 6-(4-ethylphenyl)-1-(3,4,5-trimethoxyphenyl)-1H-indole] |
| 6.67 ± 0.29 µM | 21.37 ± 0.12 µM | 87.4 ± 3.45 µM | 47 ± 5.62 µM | 41.8 ± 1.11 µM | 17.4 ± 0.35 µM | 21.1 ± 1.17 µM | – | – | COc1cc(-n2ccc3ccc(-c4ccccc4C(C)C)cc32)cc(OC)c1OC [3f, 6-(2-isopropylphenyl)-1-(3,4,5-trimethoxyphenyl)-1H-indole] |
| > 100 µM | > 100 µM | > 100 µM | > 200 µM | > 100 µM | > 100 µM | > 100 µM | undetectable binding | – | COc1cc(-n2ccc3ccc(-c4cccc(OC(F)(F)F)c4)cc32)cc(OC)c1OC [3h, 6-(3-(trifluoromethoxy)phenyl)-1-(3,4,5-trimethoxyphenyl)-1H-indole] |
| > 100 µM | > 100 µM | > 100 µM | > 200 µM | > 100 µM | > 100 µM | > 100 µM | undetectable binding | – | CCCCc1ccc(-c2ccc3ccn(-c4cc(OC)c(OC)c(OC)c4)c3c2)cc1 [3i, 6-(4-butylphenyl)-1-(3,4,5-trimethoxyphenyl)-1H-indole] |
| 68.9 ± 3.17 µM | 41.4 ± 1.21 µM | 48 ± 2.56 µM | 220 ± 30.8 µM | 65 ± 3.2 µM | 14.2 ± 0.51 µM | 16.1 ± 0.38 µM | – | – | COc1cc(-n2ccc3ccc(-c4ccc(C#N)cc4F)cc32)cc(OC)c1OC [3n, 3-fluoro-4-(1-(3,4,5-trimethoxyphenyl)-1H-indol-6-yl)benzonitrile] |
